{
  "source": "patent US8389551B2",
  "about": "“Optical enantiomers of phenyramidol and process for chiral synthesis” (Fermenta Biotech (UK) Limited, priority 2006, dated 2013)",
  "key": {"[1]": {"test_system": "swiss albino mice", "assay": "Skeletal muscle relaxant activity, Rota rod, second experiment (racemic, S isomer, R isomer)", "format": "in vivo", "details": "confirmed by a Rota-rod method", "method": "The evaluation of skeletal muscle relaxant activity of the formulations containing phenyramidol racemic, dextro and laevo isomers of oxalate salts in swiss albino mice were carried out using Rota rod apparatus. Each animal was trained only once per day for 5 days. […] Mouse was placed on rota rod only when it achieved the speed of 25 rpm. The ‘fall off time’ in seconds was noted down when the mouse falls from rotating rod. Endurance time was measured up to 120 seconds. The skeletal muscle relaxant activity was assessed using 0 hr, 1 hr, 2 hrs, 4 hrs and 6 hrs time points after the dose administration. A total of 100 mice were selected and randomly distributed into ten main groups with 10 animals per group.\nTwo efficacy variables were assessed during the experiment: 1. Percent animal falling from the rod was noted; 2. Endurance Time (ET): The time taken for a mouse to fall from the rod was taken as endurance time. The endurance time was taken up to 120 sec and treatment group ET was compared to normal control. These efficacy variables were assessed at five time points 0 hr, 1 hr, 2 hr, 4 hr, and 6 hr for each and every animal.\nIn another experiment, the studies have been extended to confirm the isomer which is having more skeletal muscle relaxant activity. Control group (R1) receiving only vehicle (water for injection) served as a placebo in the study. […]"}, "[2]": {"test_system": "swiss albino mice", "assay": "Analgesic activity, acetic acid induced writhing method", "format": "in vivo", "method": "The objective of the study was to evaluate the analgesic activity of the tested formulations of the compounds of the present invention. The test was conducted in Swiss albino mice using acetic acid induced writhing method. A total of 78 pre-screened mice (showing writhing response within 10 minutes*) were divided into 6 groups of 13 animals (6 males+7 females) each. The animals showing no writhing response within 10 mins were excluded. Diclofenac and pentazocine were used as positive controls. The formulations were given orally to the different groups of animals and the number of writhes counted for a period of 15 minutes, after the onset of writhes. If the onset of writhes occurred 30 after 10 minutes the number of writhes was recorded as V. The time of onset of writhes was recorded for each animal.\nThe control group received 1% gum acacia. The Groups 2, 3, and 4 received the formulations viz: Phen 2; Phen 3 and Phen 4 respectively. Diclofenac and pentazocine were used as positive control and given to groups 5 and 6 respectively. Diclofenac, a potent analgesic & anti-inflammatory agent; and 5 pentazocine an opoid analgesic were selected for comparative evaluation of test formulations. Both these drugs were administered to different groups of animals at the dose of 2 mg/kg. The group 1 (Phen 1) served as—Ve Control group in the study. Phen 5 (Diclofenac—2 mg/kg) and Positive Control: Phen 6 (Pentazocine 2 mg/kg) served as positive controls.\nHuman daily dose of 2400 mg (800 mg×3 times) was extrapolated to mice for Phen3 and human daily dose of 1200 mg (400 mg×3 times) was extrapolated to mice for Phen2 and Phen 4. The numbers of writhes observed are given below in Table 4 for each formulation.\nFurther, the evaluation of analgesic activity was carried out using variable dosage forms with different groups. A total of 100 animals (50 males+50 females) were selected randomly and distributed into ten main groups with 10 animals per group (5 M+5 F). Human daily dose of 2400 mg (800 mg×3 times) was extrapolated to mice for Phen 3 (Phenyramidol Racemic (Hydrochloride) and human daily dose of 1200 mg (400 mg×3 times), 1800 mg (400 mg×4.5 times), 2000 mg (400 mg×5 times) & 2400 mg (400 mg×6 times) was extrapolated to mice for Phen2 and Phen4 groups.\nThe control group 1 received 1% gum acacia and served as negative control group. Groups 2, 3, 4 & 5 received the formulation Phen2. Groups 6, 7, 8 & 9 received the formulation Phen 4 (Isomer 2) & Group 10 received the formulation Phen 3 (Racemic).\nFurther, one more experiment was done with phenyramidol hydrochloride to evaluate the analgesic activity at lesser dosage levels using acetic acid induced method. A total of 50 animals (25 males+25 females) were selected and randomly distributed into five main groups with 10 animals per group (5 M+5 F). 5 Human daily dose of 600 mg (400×1.5 times) & 1200 mg (800 mg×1.5 times) was extrapolated to mice for Phen 3 (Racemic) and human daily dose of 600 mg (400 mg×1.5 times) was extrapolated to mice for (−) Phenyramidol Hydrochloride & (+) Phenyramidol Hydrochloride and the results are discussed in Table 6."}},
  "note": "Marks after values point to notes of the source that are not given here.",
  "data": [
    {"smiles": "Cl.O[C@H](CNc1ccccn1)c1ccccc1", "note": "[(+) Phenyramidol Hydrochloride, (S)-Phenyramidol Hydrochloride Salt]", "values": [
      {"measurement": "skeletal muscle relaxant activity (summary statement)", "setting": "[1]", "result": "enhanced skeletal muscle relaxant activity"},
      {"measurement": "Average no. of writhes", "setting": "[2]; Table 6, dose 600 mg (human daily dose extrapolated to mice), mean ± SD, n = 10", "result": "5.00 ± 4.64*"},
      {"measurement": "analgesic activity by decrease in the number of writhes induced by acetic acid", "setting": "[2]; experiment of Table 6, lesser dosage levels", "result": "significant analgesic activity"}
    ]}
  ]
}
